Earlier results on one molecule are cited in patent publication US20090318295A1, “Solid herbicidal formulation of N-(phosphono-methyl)glycine and process for its preparation” (priority 2002, published 2009).

In brackets after ≈: the same amount, converted by molar mass.

Regarding `O=C(O)CNCP(=O)(O)O` [Glyphosate, N-(phosphonomethyl)glycine], the solubility in water was 12 mg/mL (≈ 71 mM).
